Photoluminescence quantum yield data for 40 molecules are collected here from the Deep4Chem optical property database.

The nature of the data set: photoluminescence quantum yield (fraction); solvent given as SMILES.

In turn, `CC(C)(C)c1ccc2c(c1)c1cc(C(C)(C)C)ccc1n2-c1cc(N2c3ccccc3C(c3ccccc3)(c3ccccc3)c3ccccc32)cc(-n2c3ccc(C(C)(C)C)cc3c3cc(C(C)(C)C)ccc32)c1C#N` came in with a photoluminescence quantum yield (in Cc1ccccc1) of 0.2.

For `N#Cc1c2oc3ccccc3oc2c(C#N)c2oc3ccccc3oc12`, the photoluminescence quantum yield (in ClC(Cl)Cl) turned out to be 0.78.

`O=P1(c2ccccc2)C(c2ccc(N(c3ccccc3)c3ccccc3)cc2)=Cc2ccccc21` (stereo unspecified) gave a photoluminescence quantum yield (in ClCCl) of 0.81.

Turning to `COc1cc2c(cc1/C=C/C1=CC(=C(C#N)C#N)CC(C)(C)C1)c1ccccc1n2C`, the photoluminescence quantum yield runs as follows: (in C1CCOC1) 0.013; (in CC#N) 0.031; (in CCO) 0.021; (in CCOC(C)=O) 0.009; (in CN(C)C=O) 0.038; (in CS(C)=O) 0.059. Besides, the photoluminescence quantum yield (in Cc1ccccc1) turned out to be 0.007, the photoluminescence quantum yield (in ClC(Cl)Cl) came out at 0.018 and the photoluminescence quantum yield (in ClCCl) amounted to 0.022.

For the setting “in C1CCOC1”, `CC(C)(C)c1ccc2c(c1)c1cc(C(C)(C)C)cc3c1n2B1c2c-3cccc2-c2cc(C(C)(C)C)cc3c4cc(C(C)(C)C)ccc4n1c23` showed a photoluminescence quantum yield of 0.63.

The molecule `Cc1cc(C2=Cc3cccc[n+]3[B-](F)(F)O2)ccc1N(C)C` registered a photoluminescence quantum yield (in ClC(Cl)Cl) of 0.688.

With `O=c1oc2ccccc2c2c1c(=O)oc1c3ccccc3cc(O)c12`, the photoluminescence quantum yield (in ClCCl) worked out at 0.29.

On to `CCN1\C(=C/C=C/C=C/C2=[N+](CC)c3ccc4cc(Br)ccc4c3C2(C)C)C(C)(C)c2c1ccc1cc(Br)ccc21`, for which, for the setting “in CS(C)=O”, the photoluminescence quantum yield came to 0.381.

`Clc1ncc(-c2c3ccccc3c(-c3cnc(Cl)nc3)c3ccccc23)cn1`: the photoluminescence quantum yield stood at 0.22 (in CCO) and 0.78 (in ClCCl).

Consider `COc1ccc(-c2oc3cccc4c5c(-c6ccc(OC)c(OC)c6)c(=N)oc6cccc(c2c34)c65)cc1OC`, for which the photoluminescence quantum yield (in ClC(Cl)Cl) was 0.41.

In turn, `CCOC(=O)c1ccc2c(c1)[se]c1c3ccc(C(=O)OCC)cc3[se]c21` came in with a photoluminescence quantum yield (in CCCO) of 0.002.

As to `CCCCc1ccc2ccc3c(CCCC)ccc4ccc1c2c43`, the photoluminescence quantum yield by setting is: (in CCCCCC) 0.47; (in CO) 0.6; (in ClCCl) 0.36.

`CCCCCCCCCCOc1ccc(C#Cc2cc3c(C#Cc4ccc(OCCCCCCCCCC)cc4)c(C#Cc4ccc(OCCCCCCCCCC)cc4)c4cc(C#Cc5ccc(OCCCCCCCCCC)cc5)cc5c(C#Cc6ccc(OCCCCCCCCCC)cc6)c(C#Cc6ccc(OCCCCCCCCCC)cc6)c(c2)c3c45)cc1` registered a photoluminescence quantum yield (in ClCCl) of 0.44.

For `c1ccc(-c2cc(-c3ccccc3)cc(-c3ccc4c(c3)C3(c5ccccc5-4)c4ccccc4-c4c3c3c5ccccc5c(-c5cc(-c6ccccc6)cc(-c6ccccc6)c5)cc3c3ccccc43)c2)cc1` (stereo unspecified), the photoluminescence quantum yield (in Cc1ccccc1) is 0.87.

`Cc1cc(C)c(B2c3cc(C(C)(C)C)cc4ccc5c6ccccc6c6cc(C(C)(C)C)cc2c6c5c34)c(C)c1` had a photoluminescence quantum yield (in C1CCCCC1) of 0.72.

`CCCCCCN1C(=O)c2cccc3c(-c4ccc(-c5cc(-c6ccc(Cl)cc6)n(-c6ccccc6)n5)s4)ccc(c23)C1=O`: the photoluminescence quantum yield (in ClCCl) amounted to 0.33.

For the setting “in ClCCl”, `CCCCC(CC)COc1ccc2nc(-c3ccc(-c4ccc(N(C)C)cc4)s3)sc2c1` (stereo unspecified) came in with a photoluminescence quantum yield of 0.94.

Under “in ClC(Cl)Cl”, `CCCCCCCCCCOc1cc(OCCCCCCCCCC)cc(C2=C3C(/C=C/c4ccc(N(C)C)cc4)=C(C#Cc4ccc(C(C)(C)C)cc4)C(/C=C/c4ccc(N(C)C)cc4)=[N+]3[B-](F)(F)n3c(/C=C/c4ccc(N(C)C)cc4)c(C#Cc4ccc(C(C)(C)C)cc4)c(/C=C/c4ccc(N(C)C)cc4)c32)c1` came in with a photoluminescence quantum yield of 0.05.

With `CCc1c(C)c2n(c1C)[B-](F)(F)[N+]1=C(NCc3ccc(OC)cc3)C=CC1=C2C`, the photoluminescence quantum yield by setting is: (in CC#N) 0.65; (in CCCCCC) 0.73; (in CCOC(C)=O) 0.59; (in CO) 0.59; (in ClCCl) 0.61.

Take `CCOC(=O)/C(C)=C/C1=C(c2ccc(C)cc2)C2=Nc3c(-c4ccc(C)cc4)c(Br)c(-c4ccc(C)cc4)n3[B-](F)(F)[N+]2=C1c1ccc(C)cc1`: for the setting “in ClC(Cl)Cl”, the photoluminescence quantum yield was 0.03.

Regarding `CC(C)[Si]1(C(C)C)c2cc(C=C(C#N)C#N)ccc2-c2ccc(N(C)C)cc21`, the photoluminescence quantum yield runs as follows: (in C1CCCCC1) 0.08; (in CC#N) 0.32; (in CCO) 0.16; (in CCOCC) 0.56; (in CS(C)=O) 0.23; (in ClCCl) 0.56. This molecule also showed a photoluminescence quantum yield (in c1ccccc1) of 0.36.

As to `c1ccc(B2Nc3cc4c(cc3-c3sccc32)NB(c2ccccc2)c2ccsc2-4)cc1`, the photoluminescence quantum yield (in ClCCl) came to 0.17.

`F[B-]1(F)OC(c2ccc(Br)cc2)=Cc2ccc3ccccc3[n+]21` returned a photoluminescence quantum yield (in ClC(Cl)Cl) of 0.49.

Turning to `COc1ccc(C2=CC(c3cc(OC)cc(OC)c3)=[O+][B-](F)(F)O2)cc1`, the photoluminescence quantum yield is, setting by setting: (in CC#N) 0.02; (in CC(C)=O) 0.04; (in CCCCCC) 0.25; (in Cc1ccccc1) 0.19; (in ClCCl) 0.08.

Turning to `O=C1Cc2ccc(cc2)CC(=O)Cc2ccc(c3nsnc23)C1`, the photoluminescence quantum yield came out at 0.85 (in C1CCCCC1), 0.45 (in CC#N) and 0.68 (in ClC(Cl)Cl).

Take `COc1ccc(O[B-]2(Oc3ccc(OC)cc3)n3c(C)cc(C)c3C(c3ccc(I)cc3)=C3C(C)=CC(C)=[N+]32)cc1`: the photoluminescence quantum yield (in ClC(Cl)Cl) amounted to 0.004.

Consider `O=P1(c2ccccc2)C(c2cc(C(F)(F)F)cc(C(F)(F)F)c2)=Cc2c3ccc4cccc5ccc(c6cc(-c7ccc(N(c8ccccc8)c8ccccc8)cc7)n1c26)c3c45` (stereo unspecified), for which the photoluminescence quantum yield is 0.44 (in C1CCCCC1); 0.17 (in C1CCOC1); 0.48 (in C1COCCO1); 0.004 (in CC#N); 0.11 (in CC(C)=O); 0.004 (in CO). Also, the photoluminescence quantum yield came out at 0.49 (in Cc1ccccc1), 0.49 (in ClC(Cl)Cl) and 0.23 (in ClCCl).

In turn, `CCn1c2ccccc2c2cc(C#Cc3cc(C#Cc4ccc5c(c4)c4ccccc4n5CC)nc(C#N)n3)ccc21` registered a photoluminescence quantum yield (in C1CCOC1) of 0.66; a photoluminescence quantum yield (in CCOC(C)=O) of 0.68; a photoluminescence quantum yield (in CN(C)C=O) of 0.21; a photoluminescence quantum yield (in Cc1ccccc1) of 0.81; a photoluminescence quantum yield (in ClCCl) of 0.65.

For the molecule `CCCCN1c2ccccc2Sc2cc(/C=C/C3=Nc4ccc5ccccc5c4C3(C)C)ccc21`, the photoluminescence quantum yield runs as follows: (in C1CCCCC1) 0.09; (in C1CCOC1) 0.12; (in C1COCCO1) 0.17; (in CC#N) 0.05; (in CC(C)=O) 0.06; (in CC(C)O) 0.07. Moreover, the photoluminescence quantum yield (in CCOC(C)=O) came to 0.13; the photoluminescence quantum yield (in CCOCC) came to 0.14; the photoluminescence quantum yield (in CO) was 0.01; the photoluminescence quantum yield (in CS(C)=O) was found to be 0.09; the photoluminescence quantum yield (in Cc1ccccc1) was found to be 0.18; the photoluminescence quantum yield (in ClCCl) was determined as 0.11.

For `N#Cc1coc2ccccc2c1=O`, the photoluminescence quantum yield stood at 0.035 (in C1CCOC1); 0.0009 (in C1COCCO1); 0.0005 (in CC#N); 0.001 (in CC(C)O); 0.003 (in CCCCO); 0.001 (in CCCO). Further, the photoluminescence quantum yield is 0.002 (in CCOC(C)=O); 0.001 (in CN(C)C=O); 0.003 (in CO); 0.003 (in CS(C)=O); 0.002 (in ClC(Cl)Cl); 0.001 (in O).

In turn, `COc1ccc(C#Cc2c3ccccc3c(C#Cc3ccc(OC)cc3)c3cc4ccccc4cc23)cc1` returned a photoluminescence quantum yield (in ClCCl) of 0.85.

Consider `COc1ccc(-c2cc3ccccc3p2-c2ccccc2)cc1` (stereo unspecified), for which the photoluminescence quantum yield (in C1CCOC1) came out at 0.09.

`C[Si]1(C)O[Si](C)(C)c2cc3nc4ccc(Cl)cc4c(-c4ccccc4)c3cc2[Si](C)(C)O1` gave a photoluminescence quantum yield (in ClCCl) of 0.29.

In turn, `CCOC(=O)/C(C#N)=C/c1cc2c3ccccc3n(C)c2cc1OC` registered a photoluminescence quantum yield (in C1CCOC1) of 0.001; a photoluminescence quantum yield (in CC#N) of 0.003; a photoluminescence quantum yield (in CCOC(C)=O) of 0.004; a photoluminescence quantum yield (in CN(C)C=O) of 0.005; a photoluminescence quantum yield (in CO) of 0.003; a photoluminescence quantum yield (in CS(C)=O) of 0.01. In addition, the photoluminescence quantum yield turned out to be 0.003 (in Cc1ccccc1), 0.004 (in ClC(Cl)Cl) and 0.003 (in ClCCl).

Regarding `c1ccc2c(c1)ncc1ccc3cnc4ccccc4c3c12`, for the setting “in CC#N”, the photoluminescence quantum yield turned out to be 0.14.

Under “in CCCO”, `CCOC(=O)c1ccc2c(c1)n(C)c1c3ccc(C(=O)OCC)cc3n(C)c21` registered a photoluminescence quantum yield of 0.53.

As for `COc1cc(OC)cc(C2=C3C(C)=C(I)C(/C=C/c4ccsc4)=[N+]3[B-](F)(F)n3c(/C=C/c4ccsc4)c(I)c(C)c32)c1`, the photoluminescence quantum yield came to 0.01 (in C1CCOC1), 0.01 (in CS(C)=O) and 0.02 (in ClCCl).

Molecule `Cc1ccc2nc3cc4c(cc3c(-c3ccccc3)c2c1)[Si](C)(C)O[Si]4(C)C` showed a photoluminescence quantum yield (in ClCCl) of 0.27.

`CNC1=C2C=CC=[N+]2[B-](F)(F)n2cccc21`: the photoluminescence quantum yield amounted to 0.7 (in C1CCCCC1); 0.16 (in CC(C)=O); 0.16 (in CCO); 0.42 (in CCOC(C)=O); 0.1 (in CO); 0.23 (in OCC(F)(F)F).

As to `Fc1cc(-c2ccc(-c3nc4cc(Br)ccc4[nH]3)cc2)ccc1-c1ccc(-c2nc3cc(Br)ccc3[nH]2)cc1`, the photoluminescence quantum yield (in CN(C)C=O) was determined as 0.48.
